Data: PubChem BioAssay (NCI)
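Interpolation was linear, between the two tested concentrations surrounding the appropriate level; five concentrations were tested over 48 hours in 96-well plates. TGI: total growth inhibition.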

Tests used:
Test in all cases: growth of human tumour cells (NCI), 48 h
[1] = tested on: BT-549 breast
[2] = tested on: HCT-116 colon
[3] = tested on: RXF 393 renal
[4] = tested on: UACC-62 melanoma
[5] = tested on: ACHN renal
[6] = tested on: OVCAR-8 ovarian
[7] = tested on: U251 CNS
[8] = tested on: HOP-62 NSCLC
[9] = tested on: CCRF-CEM leukemia
[10] = tested on: HT29 colon
[11] = tested on: T-47D breast

| Compound | TGI [1] [µM] | TGI [2] [µM] | TGI [3] [µM] | TGI [4] [µM] | TGI [5] [µM] | TGI [6] [µM] | TGI [7] [µM] | TGI [8] [µM] | TGI [9] [µM] | TGI [10] [µM] | TGI [11] [µM] |
| --- | --- | --- | --- | --- | --- | --- | --- | --- | --- | --- | --- |
| O=C(O)c1c(CC(Cc2ccc3c(c2)CCCC3)C(=O)O)ccc2c1CCCC2 (stereo not given) | > 100 | > 100 | > 100 | > 100 | > 100 | > 100 | > 100 | > 100 | > 100 | > 100 | > 100 |
| COc1cccc(NCC(=O)Nn2c(-c3ccccc3)nc3ccccc3c2=O)c1 | > 100 | > 100 | > 100 | > 100 | > 100 | > 100 | > 100 | > 100 | > 100 | > 100 | > 100 |
| Oc1cc(Cl)cc2cc(Br)cnc12 | > 100 | > 100 | 19.2 | > 77.6 | > 32.1 | > 26.9 | 98.1 | > 55.1 | 9.51 | > 100 | > 59.6 |
| N#Cc1c(=O)c2cc([N+](=O)[O-])ccc2n2c1[nH]c1ccccc12 | > 69.5 | > 40.1 | > 100 | > 54.1 | > 93.5 | > 79.5 | > 92.6 | 97.7 | > 100 | > 87.9 | > 72.7 |
| OC1C(O)C(O)C(O)C(O)C1O (stereo not given) | > 1000 | > 1000 | > 1000 | > 1000 | > 1000 | > 1000 | > 1000 | > 1000 | 144 | > 1000 | > 1000 |
| CC(C)CCCC(C)[C@H]1CC[C@H]2[C@@H]3CC[C@H]4C[C@@H](CCC=C(c5cc(Cl)c(O)c(C(=O)OC(C)(C)C)c5)c5cc(Cl)c(O)c(C(=O)OC(C)(C)C)c5)CC[C@]4(C)[C@H]3CC[C@]12C (stereo not given in full) | > 50 | > 50 | > 50 | > 50 | – | – | > 50 | > 50 | > 50 | > 50 | > 50 |
| Clc1ccc(OCc2nnc3sc(-c4ccc(-c5ccc(Cl)cc5Cl)o4)nn23)c(Cl)c1 | 50.6 | 31.4 | 30.2 | > 100 | 45.8 | 32.1 | 37.5 | 31.3 | 68.2 | 51.1 | 54.6 |
| C=C1CC/C=C(/C(=O)O)CC[C@H]2[C@@H]1CC2(C)C | > 100 | > 100 | > 100 | > 100 | > 100 | – | > 100 | > 100 | > 100 | > 100 | > 100 |
| Oc1ccc2c(c1)OCC(O)(c1ccccc1O)C2 (stereo not given) | > 100 | > 100 | > 100 | > 100 | > 100 | > 100 | > 100 | > 100 | > 100 | > 100 | > 100 |
| C#CC(O)/C=C/CCCCCCC#CC/C=C\CC#CCCCCCC/C=C/C(O)C#C (stereo not given) | 9.61 | 4.02 | 28.3 | 7.38 | 13.7 | 13.1 | 26 | 4.72 | 0.722 | 6.86 | 5.85 |
| COC(=O)C1OC(O[C@H]2CC[C@]3(C)[C@H]4CC=C5[C@@H]6CC(C)(C)CC[C@]6(C(=O)OC)[C@H](O)C[C@@]5(C)[C@]4(C)CC[C@H]3C2(C)C)C(O)C(O)C1O (stereo not given in full) | 30.4 | 17 | 18.1 | 25.1 | 23.8 | 27.3 | 23.9 | 31.1 | 21.4 | 13.5 | 28.6 |
| CCCCCCOc1ccc(NC2=C(Cl)C(=O)c3cccnc3C2=O)cc1 | > 10 | 2.09 | 2.77 | 3.28 | 4.38 | 4.56 | 7.29 | 5.83 | > 10 | 6.66 | 3.78 |
| CC(C)(C)NC(NC(C)(C)C)=C(C(Cl)=C(Cl)Cl)[N+](=O)[O-] | > 100 | > 100 | > 100 | > 100 | > 100 | > 100 | > 100 | > 100 | > 100 | > 100 | > 100 |
| Cc1ccc(C(=O)CC(Cl)=C(Cl)Cl)cc1 | > 100 | > 100 | > 100 | > 100 | > 100 | > 100 | > 100 | > 100 | 52.1 | > 100 | > 100 |
| COc1nn(Cc2ccccc2F)c2ccc([N+](=O)[O-])cc12 | > 100 | > 100 | > 83.6 | – | > 100 | > 100 | > 100 | > 100 | > 100 | > 100 | > 100 |
| Cc1cccc2sc(NC(=O)c3cc([N+](=O)[O-])ccc3Cl)nc12 | 9.5 | 12 | 12.9 | > 100 | > 100 | 9.95 | 11.4 | > 73.1 | 2.76 | 4.48 | > 100 |
| Cn1c(-c2csc(-c3ccc(Cl)cc3)n2)n[nH]c1=S | 55.8 | 40.9 | 46.3 | 46.6 | 34.8 | 47.2 | – | 30.2 | > 100 | > 100 | > 100 |
| CCCCCCCCCCCCCCCCCCNc1ccn(C2OC(COP(=O)(O)O)C(O)C2O)c(=O)n1 (stereo not given) | > 100 | > 100 | > 100 | > 100 | > 100 | > 100 | > 100 | > 100 | > 100 | > 100 | > 100 |

| Compound | TGI [1] [µM] | TGI [2] [µM] | TGI [3] [µM] | TGI [4] [µM] | TGI [5] [µM] | TGI [6] [µM] | TGI [7] [µM] | TGI [8] [µM] | TGI [9] [µM] | TGI [10] [µM] | TGI [11] [µM] |
| --- | --- | --- | --- | --- | --- | --- | --- | --- | --- | --- | --- |
| C=C1C(=O)OC2/C=C(\C)C(O)CC(O)C(C)(O)CC(OC(=O)/C(C)=C/C)C12 (stereo not given) | 83.9 | > 100 | > 100 | > 100 | > 100 | > 100 | > 100 | > 100 | > 82.8 | > 100 | > 100 |
| O=C(O)c1c(-c2c3ccc(=O)cc-3oc3cc(O)ccc23)cc2ccccc2c1-c1ccccc1 | > 100 | > 100 | > 100 | > 100 | > 100 | > 100 | > 100 | > 100 | > 67.3 | > 100 | > 100 |
| O=C1CC(Br)c2c(Cl)sc(Cl)c21 (stereo not given) | 61.4 | 16.9 | 4.91 | 25.1 | 24.6 | 10.4 | 10.4 | 19.1 | 2.15 | 41.7 | 16 |
| COC(=O)C1=NN2c3ccccc3C(=O)OCCC2C1 (stereo not given) | > 100 | > 100 | > 100 | > 100 | > 100 | > 100 | > 100 | > 100 | > 100 | > 100 | > 100 |
| Cc1ccc(S(=O)(=O)N2CCSCCSCCN(S(=O)(=O)c3ccc(C)cc3)CCN(S(=O)(=O)c3ccc(C)cc3)CC2)cc1 | > 100 | > 100 | > 100 | – | > 100 | > 100 | > 100 | > 100 | > 100 | > 100 | > 100 |
| C=CCN1C(=O)/C(=C/c2ccc(C)cc2)N=C1SC/C=C/C | > 100 | > 100 | 46.8 | > 100 | > 100 | > 100 | 77.6 | > 100 | > 100 | > 100 | 83.3 |
| O=C1Oc2ccccc2C(=O)/C1=C/N1C(=O)/C(=C/c2ccc([N+](=O)[O-])cc2)SC1=S | 31.2 | 50.2 | 79.3 | > 100 | 34 | 96.7 | > 100 | 40.8 | > 100 | > 100 | 51.7 |
| Cc1cc(C)c2c(n1)S(=O)(=O)N(CCCN1CCN(c3cccc(C(F)(F)F)c3)CC1)/C(=C(\O)c1ccccc1)C2=O | 57.3 | 18.3 | 20.9 | 27.6 | > 100 | > 100 | > 100 | > 100 | > 100 | 43.9 | > 100 |
| N#CC1C(=O)Nc2sc(C(=O)c3ccc(Br)cc3)c(N)c2C12CCCCC2 (stereo not given) | > 100 | > 100 | 31.8 | 54.1 | > 100 | > 100 | > 100 | > 100 | 80.3 | > 100 | > 100 |
| CC1=C(C(=O)OCCO[N+](=O)[O-])C(c2ccccc2C(F)(F)F)C(C(=O)OC(C)C)=C(C)N1 (stereo not given) | 26.9 | 29.1 | 31.4 | 80.2 | > 100 | 64.7 | 29.1 | 45.8 | > 100 | 36.3 | > 100 |
| N=c1c2c3n(c4c(=O)n(-c5ccccc5)c(=S)n(c(=O)n1-c1ccccc1)c24)CCCCC3 | > 100 | > 100 | > 100 | > 100 | > 100 | > 100 | > 100 | > 100 | > 100 | > 100 | > 100 |
| CC1(C)OCC2OC3([C@H](O)CCO)OC(C)(C)OC3C2O1 (stereo not given in full) | > 100 | > 100 | > 100 | > 100 | > 100 | > 100 | > 100 | > 100 | > 100 | > 100 | > 100 |
| NC(=O)c1n[nH]n(-c2ccccc2)c1=O | > 100 | > 100 | > 100 | > 100 | > 100 | > 100 | > 100 | > 100 | > 100 | > 100 | > 100 |
| CCOC(=O)CCC(C(=O)OCC)n1nc2ccc(Nc3c(C)[n+]([O-])c4cc(Cl)ccc4[n+]3[O-])cc2n1 (stereo not given) | > 100 | > 100 | > 100 | > 100 | > 100 | > 100 | > 100 | > 100 | > 100 | > 100 | > 100 |
| CCN1/C(=C/c2ccc3ccccc3[n+]2CC)C=Cc2ccccc21 | 24 | 11.7 | 12.8 | 9.22 | 31.5 | 12.4 | 11.1 | 13.9 | 6.81 | 11 | 6.31 |
| O=C(CCCCCCCCC(=O)NN1C(=O)/C(=C\c2ccc(O)c(O)c2)SC1c1c(O)ccc2ccccc12)NN1C(=O)C(=Cc2ccc(O)c(O)c2)SC1c1c(O)ccc2ccccc12 (stereo not given) | > 100 | > 100 | > 57.6 | 45.6 | > 100 | > 100 | > 54.4 | > 36.8 | 6.32 | > 100 | 62.1 |
| CCC(=O)OCc1ccc2oc(=O)c(C(=O)Oc3cncc(Cl)c3)cc2c1 | > 100 | > 100 | > 100 | > 100 | > 100 | > 100 | > 100 | > 100 | 24.8 | > 100 | > 100 |
| COc1ccc(-c2cc(-c3ccc(Nc4ccnc5cc(C(F)(F)F)ccc45)cc3)[nH]c(=O)c2C#N)c2ccccc12 | > 100 | > 100 | 46.1 | > 100 | > 81.5 | > 100 | > 36.4 | 47.2 | > 56.8 | > 74.2 | > 60.5 |
